Read-outs that look alike come from different tables or passages of the source.
Assays:
Test in all cases: Fluorimetric PPyrPM assay for group 1B PLA2 inhibition (Example 12)
Type in all cases: biochemical
[1] = target: T1, human group 1B PLA2 (hps PLA2) (Homo sapiens, UniProt P04054); conditions: for inhibition at 15 µM: read-out: ILYPSA % inhibition at 15 μM hps PLA2
T1 construct: made in house; host or cells: E. coli
Text: (§1) In this example, a fluorimetric assay procedure was used to evaluate the indole and indole-related compounds of the invention as inhibitors of group 1B phospholipase A2 (PLA2) from human, mouse and porcine. A description of this assay is found in articles: Leslie, C C and Gelb, M H (2004) Methods in Molecular Biology “Assaying phospholipase A2 activity”, 284:229-242; Singer, A G, et al. (2002) Journal of Biological Chemistry “Interfacial kinetic and binding properties of the complete set of human and mouse groups I, II, V, X, and XII secreted phospholipases A2”, 277:48535-48549, which are incorporated herein as references.
(§2) In general, this assay used a phosphatidylmethanol substrate with a pyrene fluorophore on the terminal end of the sn-2 fatty acyl chain. Without being bound by theory, close proximity of the pyrenes from neighboring phospholipids in a phospholipid vesicle caused the spectral properties to change relative to that of monomeric pyrene. Bovine serum albumin was present in the aqueous phase and captured the pyrene fatty acid when it is liberated from the glycerol backbone owing to the PLA2-catalyzed reaction. However, a potent inhibitor can inhibit the liberation of pyrene fatty acid from the glycerol backbone. […] The effect of a given inhibitor and inhibitor concentration on human, mouse and porcine phospholipase was determined.
(§3) Recombinant human and mouse group 1B PLA2 were cloned and expressed in E. coli as insoluble inclusion bodies. The inclusion bodies were isolated and purified by sonicating cell pellet in lysis buffer (50 mM Tris-HCl pH 7.0, 250 mM NaCl, 0.5% Triton 100), centrifugation at 12,000×g, and washing three times in washing buffer (20 mM Tris-HCl pH 7.0, 250 mM NaCl, 0.5% Triton 100). Then the inclusion bodies were dissolved in dissolving buffer (50 mM Tris-HCl pH 7.0, 250 mM NaCl, 6 M Guanidine-HCl, 1 mM DTT) and dialyzed four times against 10 volumes of refolding buffer (20 mM Tris-HCl pH 7.0, 250 mM NaCl, 0.5M Guanidine-HCl, 5% (w/w) Glycerol, 2 mM reduced glutathione and 0.4 mM oxidized glutathione) at 4° C. The correctly refolded proteins were concentrated using Amicon Stirred cell under nitrogen pressure (<70 psi) and dialyzed against 10 volumes of 50 mM Tris-HCl pH 7.0, 250 mM NaCl and 5% (w/w) glycerol. Human and mouse group 1B PLA2 were further purified by High S ion exchange and gel filtration columns.
(§4) The following reagents and equipments were obtained from commercial vendors: • 1. Porcine group 1B phospholipase A2 • 2. 1-hexadecanoyl-2-(1-pyrenedecanoyl)-sn-glycero-3-phosphomethanol (PPyrPM) • 3. Bovine serum albumin (BSA, fatty acid free) • 4. 2-Amino-2-(hydroxymethyl)-1,3-propanediol, hydrochloride (Tris-HCl) • 5. Calcium chloride • 6. Potassium chloride • 7. Solvents: DMSO, toluene, isopropanol, ethanol • 8. Molecular Devices SPECTRAmax microplate spectrofluorometer • 9. Costar 96 well black wall/clear bottom plate
(§5) The following reagents were prepared: • 10. PPyrPM stock solution (1 mg/ml) in toluene:isopropanol (1:1) • 11. ILY104 inhibitor stock solution (10 mM) in DMSO • 12. 3% (w/v) bovine serum albumin (BSA) • 13. Stock buffer: 50 mM Tris-HCl, pH 8.0, 50 mM KCl and 1 mM CaCl2
(§6) The following procedure was performed to evaluate the inhibitory potency of the evaluated compounds. • 14. An assay buffer was prepared by adding 3 ml 3% BSA to 47 ml stock buffer. • 15. Solution A was prepared by adding serially diluted inhibitors to the assay buffer. Inhibitors were three-fold diluted in stock buffer in a series of 8 from 15 uM. • 16. Solution B was prepared by adding human, mouse or porcine PLA2 to the assay buffer. This solution was prepared immediately before use to minimize enzyme activity loss. • 17. Solution C was prepared by adding 30 ul PPyrPM stock solution to 90 ul ethanol, and then all 120 ul of PPyrPM solution was transferred drop-wise over approximately 1 min to the continuously stirring 8.82 ml assay buffer to form a final concentration of 4.2 uM PPyrPM vesicle solution. • 18. […]

[2] = target: T2, mouse group 1B PLA2 (mps PLA2) (Mus musculus, UniProt Q9Z0Y2); conditions: mouse pancreas secreted PLA2; for IC50: read-out: ILYPSA IC50 mps PLA2; for inhibition at 15 µM: read-out: ILYPSA % inhibition at 15 μM mps PLA2
T2 construct: made in house; host or cells: E. coli
T2 sequence (Q9Z0Y2 23-146): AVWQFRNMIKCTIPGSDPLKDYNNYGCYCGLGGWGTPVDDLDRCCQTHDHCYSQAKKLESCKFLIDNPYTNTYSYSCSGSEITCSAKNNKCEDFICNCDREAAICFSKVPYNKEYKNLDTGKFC
Text: as §1, §2, §3, §4, §5, §6

[3] = target: T3, porcine group 1B PLA2 (pps PLA2) (Sus scrofa, UniProt P00592); conditions: porcine pancreas secreted PLA2; for IC50: read-out: ILYPSA IC50 pps PLA2; for inhibition at 15 µM: read-out: ILYPSA % inhibition at 15 μM pps PLA2
T3 construct: purchased
T3 sequence (P00592 23-146): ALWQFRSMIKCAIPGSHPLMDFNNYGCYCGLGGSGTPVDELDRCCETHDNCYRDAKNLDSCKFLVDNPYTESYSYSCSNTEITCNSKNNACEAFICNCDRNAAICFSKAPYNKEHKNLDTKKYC
Text: as §1, §2, §4, §5
The following procedure was performed to evaluate the inhibitory potency of the evaluated compounds. • 14. An assay buffer was prepared by adding 3 ml 3% BSA to 47 ml stock buffer. • 15. Solution A was prepared by adding serially diluted inhibitors to the assay buffer. Inhibitors were three-fold diluted in stock buffer in a series of 8 from 15 uM. • 16. Solution B was prepared by adding human, mouse or porcine PLA2 to the assay buffer. This solution was prepared immediately before use to minimize enzyme activity loss. • 17. Solution C was prepared by adding 30 ul PPyrPM stock solution to 90 ul ethanol, and then all 120 ul of PPyrPM solution was transferred drop-wise over approximately 1 min to the continuously stirring 8.82 ml assay buffer to form a final concentration of 4.2 uM PPyrPM vesicle solution. • 18. The SPECTRAmax microplate spectrofluorometer was set at 37° C. • 19. 100 ul of solution A was added to each inhibition assay well of a costar 96 well black wall/clear bottom plate • 20. 100 ul of solution B was added to each inhibition assay well of a costar 96 well black wall/clear bottom plate. • 21. 100 ul of solution C was added to each inhibition assay well of a costar 96 well black wall/clear bottom plate. • 22. The plate was incubated inside the spectrofluorometer chamber for 3 min. • 23. The fluorescence was read using an excitation of 342 nm and an emission of 395 nm.
Evaluated compounds were tested in duplicate and their values were averaged to plot the inhibition curve and calculate the IC50. Compared to uninhibited controls, lower fluorescent signal at an emission of 395 nm in test reactions evidenced inhibition of PLA2. […] Compounds initially found to be active were repeated to confirm their inhibitory activity. […]

[4] = human pancreas secreted PLA2, read-out: ILYPSA IC50 hps PLA2

T1 sequence (P04054 23-148): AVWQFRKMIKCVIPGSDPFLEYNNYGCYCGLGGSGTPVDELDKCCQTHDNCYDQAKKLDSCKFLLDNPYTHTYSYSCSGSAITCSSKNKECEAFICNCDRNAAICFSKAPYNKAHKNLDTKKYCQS

Row | SMILES | IC50 [1, 4] | IC50 [2] | IC50 [3] | inhibition at 15 µM ([1]; human pancreas secreted PLA2) | inhibition at 15 µM [3] | inhibition at 15 µM [2] | IC50 [1]
1 | Cc1c(CC(N)=O)c2c(OCC(=O)O)cccc2n1Cc1ccccc1 [ILY-III-22, (1-Benzyl-3-carbamoylmethyl-2-methyl-1H-indol-4-yloxy)-acetic acid] | 1320 nM | 890 nM |  |  |  |  | 
2 | C=CCn1c(C)c(C(=O)C(N)=O)c2c(OCC(=O)O)cccc21 [ILY-V-10] |  | 3210 nM | 460 nM | 64% |  |  | 
3 | Cc1c(C(=O)C(N)=O)c2c(OCC(=O)O)ccc(Br)c2n1Cc1ccccc1 [ILY-IV-9, (3-Aminooxalyl-1-benzyl-7-bromo-2-methyl-1H-indol-4-yloxy)-acetic acid] | 540 nM | 360 nM | 40 nM |  |  |  | 
4 | Cc1c(C(=O)C(N)=O)c2c(OC(F)(C(=O)O)C(F)(F)Br)cccc2n1Cc1ccccc1 (centres unmarked) [ILY-IV-55, 2-(3-(2-amino-2-oxoacetyl)-1-benzyl-2-methyl-1H-indol-4-yloxy)-3-bromo-2,3,3-trifluoropropanoic acid] |  |  |  | 34% | 74.5% | 42.6% | 
5 | Cc1ccc(S(=O)(=O)NC(=O)COc2cccc3c2c(C(=O)C(N)=O)c(C)n3Cc2ccccc2)cc1 [ILY-IV-26, 1-Benzyl-2-methyl-4-p-toluenesulfonamidoylmethyloxy-1H-indol-3-glyoxylamide] | > 5000 nM | 3090 nM | 80 nM |  |  |  | 
6 | Cc1c(C(=O)C(N)=O)c2c(OC(C(=O)O)C(C)C)cccc2n1CCCCCCCCCCCCn1c(C)c(C(=O)C(N)=O)c2c(OC(C(=O)O)C(C)C)cccc21 (centres unmarked) [ILY-V-44, 2-(3-Aminooxalyl-1-{12-[3-aminooxalyl-4-(1-carboxy-2-methyl-propoxy)-2-methyl-indol-1-yl]-dodecyl}-2-methyl-1H-indol-4-yloxy)-3-methyl-butyric acid] | 280 nM | 480 nM | 50 nM |  |  |  | 
7 | Cc1c(C(=O)C(N)=O)c2c(OCC(=O)O)cccc2n1CCCCCCCCCCCCSSCCCCCCCCCCCCn1c(C)c(C(=O)C(N)=O)c2c(OCC(=O)O)cccc21 [ILY-V-28, 2,2′-(1,1′-(12,12′-disulfanediylbis(dodecane-12,1-diyl))bis(3-(2-amino-2-oxoacetyl)-2-methyl-1H-indole-4,1-diyl))bis(oxy)diacetic acid] | 600 nM | 1000 nM | 730 nM |  |  |  | 
8 | Cc1c(C(=O)C(N)=O)c2c(OC(CC(C)C)C(=O)O)cccc2n1Cc1ccccc1 (centres unmarked) [ILY-IV-47, 2-(3-Aminooxalyl-1-benzyl-2-methyl-1H-indol-4-yloxy)-4-methyl-pentanoic acid] | 2940 nM | 2430 nM | 20 nM |  |  |  | 
9 | COc1cccc(Cn2c(C)c(C(=O)C(N)=O)c3c(OCC(=O)O)cccc32)c1 [ILY-V-8] | 3250 nM | 970 nM | 40 nM |  |  |  | 
10 | Cc1c(C(=O)C(N)=O)c2c(OCC(=O)O)ccc(NS(C)(=O)=O)c2n1Cc1ccccc1 [ILY-IV-37] | 3480 nM | 1020 nM | 280 nM |  |  |  | 
11 | Cc1c(C(=O)C(N)=O)c2c(OC(C(=O)O)c3ccccc3)cccc2n1Cc1ccccc1 (centres unmarked) [ILY-IV-32, (3-Aminooxalyl-1-benzyl-2-methyl-1H-indol-4-yloxy)-phenyl-acetic acid] |  |  |  | 41.7% | 38.5% | 47.5% | 
12 | Cc1c(C(=O)C(N)=O)c2c(OC(C(=O)O)C(=O)O)cccc2n1Cc1ccccc1 [ILY-IV-8, 2-(3-Aminoooxalyl-1-benzyl-2-methyl-1H-indol-4-yloxy)-malonic acid] |  |  | 2250 nM | 41% |  | 61.2% | 
13 | Cc1c(C(=O)C(N)=O)c2c(OC(F)C(N)=O)cccc2n1Cc1ccccc1 (centres unmarked) [ILY-IV-28, 2-(3-Aminooxalyl-1-benzyl-2-methyl-1H-indol-4-yloxy)-2-fluoro-acetamide] | 2600 nM | 1440 nM | 160 nM |  |  |  | 
14 | Cc1c(C(=O)C(N)=O)c2c(OC(CCC(=O)O)C(=O)O)cccc2n1Cc1ccccc1 (centres unmarked) [ILY-IV-33, 2-(3-Aminooxalyl-1-benzyl-2-methyl-1H-indol-4-yloxy)-pentanedioic acid] |  |  | 3760 nM | 35.9% |  | 50.3% | 
15 | Cc1c(C(=O)C(N)=O)c2c(OCC(=O)O)cccc2n1CCCCCCCCCCCCN(CCCCCCCCCCCCn1c(C)c(C(=O)C(N)=O)c2c(OCC(=O)O)cccc21)Cc1ccccc1 [ILY-V-31, 2,2′-(1,1′-(12,12′-(benzylazanediyl)bis(dodecane-12,1-diyl))bis(3-(2-amino-2-oxoacetyl)-2-methyl-1H-indole-4,1-diyl))bis(oxy)diacetic acid] | 100 nM | 30 nM | 20 nM |  |  |  | 
16 | Cc1c(C(=O)C(N)=O)c2c(OCC(=O)NC(CC(=O)O)C(=O)O)nccc2n1Cc1ccccc1 (centres unmarked) [ILY-II-12, 2-(2-(3-(2-amino-2-oxoacetyl)-1-benzyl-2-methyl-1H-pyrrolo[3,2-c]pyridin-4-yloxy)acetamido)succinic acid] |  |  | 3710 nM | 16.6% |  | 35.7% | 
17 | CCC(Oc1cccc2c1c(C(=O)C(N)=O)c(C)n2Cc1ccccc1)C(=O)O (centres unmarked) [ILY-IV-20, 2-(3-Aminooxalyl-1-benzyl-2-methyl-1H-indol-4-yloxy)-butyric acid] |  | < 20 nM | < 20 nM |  |  |  | 180 nM
18 | COC(=O)C(Oc1cccc2c1c(C(=O)C(N)=O)c(C)n2Cc1ccccc1)C(=O)O (centres unmarked) [ILY-IV-59] |  |  |  | 10.2% | 56.8% | 35.7% | 
19 | Cc1c(C(=O)C(N)=O)c2c(OCC(=O)NS(C)(=O)=O)nccc2n1Cc1ccccc1 [ILY-II-7, 2-[1-Benzyl-4-(2-methanesulfonylamino-2-oxo-ethoxy)-2-methyl-1H-pyrrolo[3,2-c]pyridin-3-yl]-2-oxo-acetamide] | 2070 nM | 1050 nM | 40 nM |  |  |  | 
